Structure (SMILES) | melting point [°C]
O=C(O)C(=O)CC(=O)c1cn(Cc2ccc(F)cc2)c2c(Cl)cccc2c1=O | 175 to 177
O=C(O)C(=O)CC(=O)c1cn(Cc2ccc(F)cc2)c2cc(Cl)c(Cl)cc2c1=O | 175 to 177
CCOC(=O)C(=O)CC(=O)c1cn(Cc2ccc(F)cc2)c2c(F)cccc2c1=O | 179 to 180
O=C(O)C(=O)CC(=O)c1cn(Cc2ccc(F)cc2)c2cc(N3CCCC3)ccc2c1=O | 197 to 199
O=C(O)C(=O)CC(=O)c1cn(Cc2ccc(O)cc2)c2ccccc2c1=O | 206 to 208
CCOC(=O)C(=O)CC(=O)c1cn(Cc2ccc(F)cc2)c2cc(Cl)c(Cl)cc2c1=O | 144 to 145
O=C(O)CCc1cn(Cc2ccc(F)cc2)c2ccc(C(=O)CC(=O)C(=O)O)cc2c1=O | 184 to 187
COc1cccc(Cn2cc(C(=O)CC(=O)C(=O)O)c(=O)c3ccccc32)c1 | 179 to 181
COc1ccccc1Cn1cc(C(=O)CC(=O)C(=O)O)c(=O)c2ccccc21 | 173 to 175
CCOC(=O)C(=O)CC(=O)c1ccc2c(c1)c(=O)c(CCC(=O)O)cn2Cc1ccc(F)cc1 | 177 to 180

Results, then the compound that gave them:

melting point [°C] | Structure (SMILES)
> 290 | O=C(O)C(=O)CC(=O)c1c[nH]c2ccccc2c1=O [RDS1680, 4-(1,4-dihydro-4-oxoquinolin-3-yl)-2,4-dioxobutanoic acid]
230 to 232 | O=C(O)C(=O)CC(=O)c1cn(Cc2ccc([N+](=O)[O-])cc2)c2ccccc2c1=O [RDS2018, 4-[1-(4-Nitrophenyl)methyl-1,4-dihydro-4-oxoquinolin-3-yl]-2,4-dioxobutanoic acid]
177 to 179 | O=C(O)C(=O)CC(=O)c1cn(Cc2ccc(Cl)cc2)c2ccccc2c1=O [RDS2012, 4-[1-(4-Chlorophenyl)methyl-1,4-dihydro-4-oxoquinolin-3-yl]-2,4-dioxobutanoic acid]
174 to 176 | CCOC(=O)C(=O)CC(=O)c1cn(Cc2ccc(Cl)cc2)c2ccccc2c1=O [RDS2011, 4-[1-(4-Chlorophenyl)methyl-1,4-dihydro-4-oxoquinolin-3-yl]-2,4-dioxobutanoic acid ethyl ester]
174 to 175 | CCOC(=O)C(=O)CC(=O)c1cn(Cc2cccc(F)c2)c2ccccc2c1=O [RDS1986, 4-[1-(3-Fluorophenyl)methyl-1,4-dihydro-4-oxoquinolin-3-yl]-2,4-dioxobutanoic acid ethyl ester]
141 to 142 | CCOC(=O)C(=O)CC(=O)c1cn(Cc2ccccc2)c2ccccc2c1=O [RDS1992, 4-(1-Phenylmethyl-1,4-dihydro-4-oxoquinolin-3-yl)-2,4-dioxobutanoic acid ethyl ester]
172 to 173 | CCOC(=O)C(=O)CC(=O)c1cn(Cc2c(F)cccc2F)c2ccccc2c1=O [RDS1983, 4-[1-(2,6-Difluorophenyl)methyl-1,4-dihydro-4-oxoquinolin-3-yl]-2,4-dioxobutanoic acid ethyl ester]
175 to 176 | CCOC(=O)C(=O)CC(=O)c1cn(Cc2ccc([N+](=O)[O-])cc2)c2ccccc2c1=O [RDS2017, 4-[1-(4-Nitrophenyl)methyl-1,4-dihydro-4-oxoquinolin-3-yl]-2,4-dioxobutanoic acid ethyl ester]
154 to 156 | CCOC(=O)C(=O)CC(=O)c1cn(Cc2ccc(OC)cc2)c2ccccc2c1=O [RDS2034, 4-[1-(4-Methoxyphenyl)methyl-1,4-dihydro-4-oxoquinolin-3-yl]-2,4-dioxobutanoic acid ethyl ester]
149 to 150 | COc1ccc(Cn2cc(C(=O)CC(=O)C(=O)O)c(=O)c3ccccc32)cc1 [RDS2035, 4-[1-(4-Methoxyphenyl)methyl-1,4-dihydro-4-oxoquinolin-3-yl]-2,4-dioxobutanoic acid]
152 to 153 | CCOC(=O)C(=O)CC(=O)c1cn(Cc2ccccc2F)c2ccccc2c1=O [RDS1989, 4-[1-(2-Fluorophenyl)methyl-1,4-dihydro-4-oxoquinolin-3-yl]-2,4-dioxobutanoic acid ethyl ester]
